Experimental data published in PubChem BioAssay AID1963426 (Molecular Pharmacology Branch, DTP, NCI, 2024).

Test system: 186277-243-T-J2-PDC complex spheroid growth, % test/control
Assay: Anticancer human tumor 186277-243-T-J2-PDC patient-derived colon adenocarcinoma cell line growth inhibition [Asc]
Details: for IC50: curve of first compound; for viability, T/C: stronger effect = lower value
Summary of the method: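 Tumor cells were grown as complex spheroids with human endothelial cells (HUVEC) and human mesenchymal stem cells as stroma. Agents were tested alone and in combination, in half-log steps down from the clinical Cmax, or from 10 microM where Cmax was unknown.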
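Also: spheroids exposed to agents for 7 days.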
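For viability, T/C in this document: 100% = DMSO vehicle control wells.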

## Cc1nc(N2CCC3(CC2)COC(C)C3N)c(CO)nc1Sc1ccnc(N)c1Cl (stereo not given) + CCN1C(C(=O)NC23CCC(C(=O)O)(CC2)CC3)C(c2cccc(Cl)c2F)C2(C(=O)Nc3cc(Cl)ccc32)C12CCCCC2
Second compound 0.03 µM
  IC50: > 3 µM
Second compound 0.0949 µM
  IC50: > 3 µM
Second compound 0.3 µM
  IC50: 0.289 µM
Second compound 0.949 µM
  IC50: < 0.00949 µM
Second compound 3 µM
  IC50: < 0.00949 µM
Second compound 0.03 µM, first compound 0.00949 µM
  viability, T/C: 122%
Second compound 0.03 µM, first compound 0.03 µM
  viability, T/C: 127%
Second compound 0.03 µM, first compound 0.0949 µM
  viability, T/C: 105%
Second compound 0.03 µM, first compound 0.3 µM
  viability, T/C: 113%
Second compound 0.03 µM, first compound 0.949 µM
  viability, T/C: 90.9%
Second compound 0.03 µM, first compound 3 µM
  viability, T/C: 90.7%
Second compound 0.0949 µM, first compound 0.00949 µM
  viability, T/C: 95.1%
Second compound 0.0949 µM, first compound 0.03 µM
  viability, T/C: 89.2%
Second compound 0.0949 µM, first compound 0.0949 µM
  viability, T/C: 84.5%
Second compound 0.0949 µM, first compound 0.3 µM
  viability, T/C: 84.5%
Second compound 0.0949 µM, first compound 0.949 µM
  viability, T/C: 71.9%
Second compound 0.0949 µM, first compound 3 µM
  viability, T/C: 57.8%
Second compound 0.3 µM, first compound 0.00949 µM
  viability, T/C: 63.2%
Second compound 0.3 µM, first compound 0.03 µM
  viability, T/C: 67.2%
Second compound 0.3 µM, first compound 0.0949 µM
  viability, T/C: 57.3%
Second compound 0.3 µM, first compound 0.3 µM
  viability, T/C: 48.6%
Second compound 0.3 µM, first compound 0.949 µM
  viability, T/C: 39.6%
Second compound 0.3 µM, first compound 3 µM
  viability, T/C: 28.3%
Second compound 0.949 µM, first compound 0.00949 µM
  viability, T/C: 45.9%
Second compound 0.949 µM, first compound 0.03 µM
  viability, T/C: 43.6%
Second compound 0.949 µM, first compound 0.0949 µM
  viability, T/C: 40.8%
Second compound 0.949 µM, first compound 0.3 µM
  viability, T/C: 33.1%
Second compound 0.949 µM, first compound 0.949 µM
  viability, T/C: 26.1%
Second compound 0.949 µM, first compound 3 µM
  viability, T/C: 19.1%
Second compound 3 µM, first compound 0.00949 µM
  viability, T/C: 26.8%
Second compound 3 µM, first compound 0.03 µM
  viability, T/C: 27.6%
Second compound 3 µM, first compound 0.0949 µM
  viability, T/C: 22.1%
Second compound 3 µM, first compound 0.3 µM
  viability, T/C: 19.4%
Second compound 3 µM, first compound 0.949 µM
  viability, T/C: 11.4%
Second compound 3 µM, first compound 3 µM
  viability, T/C: 9.13%

## O=C(c1cc(Cc2n[nH]c(=O)c3ccccc23)ccc1F)N1CCN(C(=O)C2CC2)CC1 + CNC(C)C(=O)NC1CN(S(=O)(=O)c2cccc(S(=O)(=O)N3CCC4CCC(C(=O)NC(c5ccccc5)c5ccccc5)N4C(=O)C(NC(=O)C(C)NC)C3)c2)CCC2CCC(C(=O)NC(c3ccccc3)c3ccccc3)N2C1=O
Second compound 0.01 µM
  IC50: > 10 µM
Second compound 0.0316 µM
  IC50: > 10 µM
Second compound 0.1 µM
  IC50: > 10 µM
Second compound 0.316 µM
  IC50: > 10 µM
Second compound 1 µM
  IC50: > 10 µM
Second compound 0.01 µM, first compound 0.0316 µM
  viability, T/C: 95.4%
Second compound 0.01 µM, first compound 0.1 µM
  viability, T/C: 116%
Second compound 0.01 µM, first compound 0.316 µM
  viability, T/C: 111%
Second compound 0.01 µM, first compound 1 µM
  viability, T/C: 120%
Second compound 0.01 µM, first compound 3.16 µM
  viability, T/C: 121%
Second compound 0.01 µM, first compound 10 µM
  viability, T/C: 147%
Second compound 0.0316 µM, first compound 0.0316 µM
  viability, T/C: 114%
Second compound 0.0316 µM, first compound 0.1 µM
  viability, T/C: 102%
Second compound 0.0316 µM, first compound 0.316 µM
  viability, T/C: 99.1%
Second compound 0.0316 µM, first compound 1 µM
  viability, T/C: 114%
Second compound 0.0316 µM, first compound 3.16 µM
  viability, T/C: 123%
Second compound 0.0316 µM, first compound 10 µM
  viability, T/C: 156%
Second compound 0.1 µM, first compound 0.0316 µM
  viability, T/C: 111%
Second compound 0.1 µM, first compound 0.1 µM
  viability, T/C: 112%
Second compound 0.1 µM, first compound 0.316 µM
  viability, T/C: 114%
Second compound 0.1 µM, first compound 1 µM
  viability, T/C: 123%
Second compound 0.1 µM, first compound 3.16 µM
  viability, T/C: 129%
Second compound 0.1 µM, first compound 10 µM
  viability, T/C: 149%
Second compound 0.316 µM, first compound 0.0316 µM
  viability, T/C: 98.2%
Second compound 0.316 µM, first compound 0.1 µM
  viability, T/C: 104%
Second compound 0.316 µM, first compound 0.316 µM
  viability, T/C: 104%
Second compound 0.316 µM, first compound 1 µM
  viability, T/C: 117%
Second compound 0.316 µM, first compound 3.16 µM
  viability, T/C: 142%
Second compound 0.316 µM, first compound 10 µM
  viability, T/C: 148%
Second compound 1 µM, first compound 0.0316 µM
  viability, T/C: 99.3%
Second compound 1 µM, first compound 0.1 µM
  viability, T/C: 111%
Second compound 1 µM, first compound 0.316 µM
  viability, T/C: 106%
Second compound 1 µM, first compound 1 µM
  viability, T/C: 114%
Second compound 1 µM, first compound 3.16 µM
  viability, T/C: 125%
Second compound 1 µM, first compound 10 µM
  viability, T/C: 159%
